Experimental data taken from ChEMBL document CHEMBL1177720, “Selective hexapeptide agonists and antagonists for human complement C3a receptor” (J Med Chem, 2010).
The source made the active and inactive calls. No cut-off for these calls is given here. Peptide text beside a SMILES is read from it.

Columns and labels:
[1] = biological target: T1, C5a anaphylatoxin chemotactic receptor 1 (Homo sapiens) (UniProt P21730); assay: Displacement of […] from C5a receptor in human PBMC at 1 mM by scintillation counting
T1 sequence (whole entry): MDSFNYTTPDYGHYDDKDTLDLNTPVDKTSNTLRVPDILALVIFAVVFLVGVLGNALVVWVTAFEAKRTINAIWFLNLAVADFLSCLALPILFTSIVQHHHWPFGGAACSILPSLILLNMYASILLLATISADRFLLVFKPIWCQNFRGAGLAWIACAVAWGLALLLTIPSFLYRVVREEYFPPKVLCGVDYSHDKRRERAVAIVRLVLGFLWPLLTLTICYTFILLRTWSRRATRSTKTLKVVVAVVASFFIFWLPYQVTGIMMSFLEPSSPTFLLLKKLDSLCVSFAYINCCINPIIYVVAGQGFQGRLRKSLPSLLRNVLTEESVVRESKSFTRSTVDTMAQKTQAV

[2] = biological target: T2, C3a anaphylatoxin chemotactic receptor (Homo sapiens) (UniProt Q16581); assay: Agonist activity at human C3a receptor in human U937 cells assessed as induction of intracellular calcium release at 1 mM; type: functional, cell-based; settings: U-937
T2 sequence (whole entry): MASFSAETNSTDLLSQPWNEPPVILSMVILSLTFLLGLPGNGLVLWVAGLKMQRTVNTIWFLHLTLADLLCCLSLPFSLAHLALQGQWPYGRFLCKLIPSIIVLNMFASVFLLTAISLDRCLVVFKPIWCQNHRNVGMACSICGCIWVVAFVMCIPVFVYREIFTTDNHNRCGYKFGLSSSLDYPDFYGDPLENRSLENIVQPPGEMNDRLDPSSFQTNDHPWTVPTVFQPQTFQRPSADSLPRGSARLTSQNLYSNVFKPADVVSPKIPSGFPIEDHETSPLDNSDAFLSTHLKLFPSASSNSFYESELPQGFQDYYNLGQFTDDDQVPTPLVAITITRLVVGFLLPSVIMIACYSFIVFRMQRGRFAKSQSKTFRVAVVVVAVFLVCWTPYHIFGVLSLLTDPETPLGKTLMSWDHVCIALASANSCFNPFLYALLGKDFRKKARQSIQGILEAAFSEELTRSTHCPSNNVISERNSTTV

[3] = biological target: T3, C3a anaphylatoxin chemotactic receptor (Homo sapiens, UniProt Q16581); assay: Displacement of [125I-C3a] from C3a receptor in human PBMC by scintillation counting; settings: read-out: IC50
T3 sequence (Q16581 whole entry): T2 sequence (whole entry)

[4] = biological target: T3, C3a anaphylatoxin chemotactic receptor; assay: Antagonist activity at human C3a receptor in human U937 cells assessed as inhibition of intracellular calcium mobilization; type: functional, cell-based, U-937
[5] = biological target: T2, C3a anaphylatoxin chemotactic receptor (Homo sapiens); assay: Agonist activity at human C3a receptor in human U937 cells assessed as induction of intracellular calcium release at 10 uM; type: functional, cell-based; settings: U-937
[6] = biological target: T3, C3a anaphylatoxin chemotactic receptor; assay: Agonist activity at human C3a receptor in human U937 cells assessed as induction of intracellular calcium release; type: functional, cell-based, U-937
[7] = biological target: T4, C5a anaphylatoxin chemotactic receptor 1 (Homo sapiens, UniProt P21730); assay: Displacement of [125I-C5a] from C5a receptor in human PBMC by scintillation counting
T4 sequence (P21730 whole entry): T1 sequence (whole entry)

[8] = biological target: T2, C3a anaphylatoxin chemotactic receptor (Homo sapiens); assay: Displacement of [125I-C3a] from C3a receptor in human PBMC at 1 mM by scintillation counting
[9] = organism: Homo sapiens; assay: Selectivity for human C3a receptor over human C5a receptor
[10] = biological target: T2, C3a anaphylatoxin chemotactic receptor (Homo sapiens); assay: Agonist activity at human C3a receptor in human U937 cells assessed as induction of intracellular calcium release at 100 uM; type: functional, cell-based; settings: U-937

`N=C(N)NCCC[C@H](NC(=O)COCC(c1ccccc1)c1ccccc1)C(=O)O` was tested, and the Activity [1] was “inactive”, the Activity [2] was “inactive” and the IC50 [3] was 0.14 µM. For the same molecule, the IC50 [4] was 1.3 µM and the Activity [5] was “inactive”.

`CSCC[C@H](NC(=O)[C@H](CC(=O)O)N(C)C(=O)[C@H](CCCCN)NC(=O)[C@H](Cc1ccccc1)NC(=O)[C@H](CO)NC(=O)[C@@H](N)Cc1ccc(O)cc1)C(=O)N1CCC[C@H]1C(=O)N[C@@H](CC(C)C)C(=O)N[C@H](C)C(=O)N[C@@H](CCCNC(=N)N)C(=O)O` was tested, and the EC50 ([6]; read-out: EC50) was 1.4 µM, the IC50 [7] was 29 µM and the IC50 [3] was 0.74 µM.

For `CSCC[C@H](NC(=O)[C@@H]1CCCN1C(=O)[C@H](CCCCN)NC(=O)[C@H](Cc1ccccc1)NC(=O)[C@H](CO)NC(=O)[C@@H](N)Cc1ccc(O)cc1)C(=O)N1CCC[C@H]1C(=O)N[C@@H](CC(C)C)C(=O)N(C)[C@H](C)C(=O)N[C@@H](CCCN=C(N)N)C(=O)O`, the EC50 ([6]; read-out: EC50) was 0.13 µM, the IC50 [7] was 2 µM and the IC50 [3] was 0.013 µM.

In the case of `CC(=O)N[C@@H](Cc1ccccc1)C(=O)N[C@H]1CCCNC(=O)[C@H](CCCN=C(N)N)NC(=O)[C@H](Cc2c[nH]c3ccccc23)NC(=O)[C@@H](CC2CCCCC2)NC(=O)[C@@H]2CCCN2C1=O`, the Activity [2] is reported as “inactive” and the Activity [8] is reported as “inactive”.

For `CSCC[C@H](NC(=O)[C@@H]1CCCN1C(=O)[C@H](CCCCN)NC(=O)[C@H](Cc1cnc[nH]1)NC(=O)[C@H](CO)NC(=O)[C@@H](N)Cc1ccc(O)cc1)C(=O)N1CCC[C@H]1C(=O)N[C@@H](CC(C)C)C(=O)N[C@H](C)C(=O)N[C@@H](CCCNC(=N)N)C(=O)O`, the Activity [1] was “inactive” and the Activity [8] was “inactive”.

`CC(C)C[C@H](NC(=O)[C@@H](N)Cc1ccccc1)C(=O)N[C@H](C(=O)N[C@@H](CC1CCCCC1)C(=O)N[C@@H](C)C(=O)N[C@@H](CCCNC(=N)N)C(=O)O)[C@@H](C)O` was tested, and the Activity [1] was “inactive”, the Activity [2] was “inactive” and the Selectivity ratio [9] was over 100. For the same molecule, the IC50 [3] was 0.238 µM, the IC50 [4] was 0.24 µM and the Activity [10] was “inactive”.

Work on `CC(C)C[C@H](NC(=O)[C@H](CC(=O)O)NC(=O)[C@H](C)NC(=O)[C@H](CC(C)C)NC(=O)[C@@H](NC(=O)[C@H](CC(C)C)NC(=O)[C@@H](N)Cc1cnc[nH]1)[C@@H](C)O)C(=O)N[C@@H](CC(C)C)C(=O)N[C@@H](CS)C(=O)N[C@@H](CS)C(=O)N[C@@H](CC(C)C)C(=O)N[C@@H](CO)C(=O)N[C@@H](CC(C)C)C(=O)N1CCC[C@H]1C(=O)N[C@@H](Cc1ccccc1)C(=O)O` (H-HLTLADLLCCLSLPF-OH) yielded an EC50 ([6]; read-out: EC50) of 1.8 µM, an EC50 ([6]; read-out: pEC50 (converted)) of 1.58 µM and an IC50 [7] of 0.56 µM. For the same molecule, the IC50 [3] was 0.25 µM.

Work on `CC[C@H](C)[C@H](NC(=O)[C@H](C)NC(=O)[C@H](CC(N)=O)NC(=O)[C@@H](NC(=O)[C@@H](NC(=O)[C@H](CCCNC(=N)N)NC(=O)[C@H](CCCCN)NC(=O)[C@H](C)NC(=O)[C@H](CCC(=O)O)NC(=O)[C@H](Cc1ccccc1)NC(=O)[C@H](C)NC(=O)[C@@H](NC(=O)[C@@H](NC(=O)[C@@H](N)Cc1c[nH]c2ccccc12)C(C)C)[C@@H](C)O)[C@@H](C)O)[C@@H](C)CC)C(=O)N[C@@H](Cc1c[nH]c2ccccc12)C(=O)O` (H-WVTAFEAKRTINAIW-OH) yielded an EC50 ([6]; read-out: EC50) of 24 µM, an IC50 [7] of 1.7 µM and an IC50 [3] of 1.6 µM.

For `CC(C)C[C@H](NC(=O)[C@@H]1CCCN1C(=O)[C@@H](N)Cc1ccc(O)cc1)C(=O)N1CCC[C@H]1C(=O)N[C@@H](CCCNC(=N)N)C(=O)O` (H-YPLPR-OH), the Activity [1] was “inactive”, the Activity [2] was “inactive” and the Activity [8] was “inactive”. The Activity [5] was “inactive”.
